Experimental data: ChEMBL document CHEMBL1152167, “Synthesis and cytotoxic activities of 1-benzylidine substituted beta-carboline derivatives” (Bioorg Med Chem Lett, 2008)

What was measured:
Type in all cases: functional, cell-based
[1] = Cytotoxicity against human 786-O cells by MTT assay; conditions: 786-0
[2] = system: A-375; experiment: Cytotoxicity against human A375 cells by MTT assay
[3] = system: HepG2; experiment: Cytotoxicity against human HepG2 cells by MTT assay
[4] = system: BGC-823; experiment: Cytotoxicity against human BGC823 cells by MTT assay
[5] = system: HeLa; experiment: Cytotoxicity against human HeLa cells by MTT assay
[6] = system: KB; experiment: Cytotoxicity against human KB cells by MTT assay
[7] = system: A549; experiment: Cytotoxicity against human A549 cells by MTT assay
[8] = system: Bel-7402; experiment: Cytotoxicity against human Bel7402 cells by MTT assay
[9] = system: HT-29; experiment: Cytotoxicity against human HT-29 cells by MTT assay
[10] = system: 769-P; experiment: Cytotoxicity against human 769-P cells by MTT assay

Structure (SMILES) | IC50 [1] [µM] | IC50 [2] [µM] | IC50 [3] [µM] | IC50 [4] [µM] | IC50 [5] [µM] | IC50 [6] [µM] | IC50 [7] [µM] | IC50 [8] [µM] | IC50 [9] [µM] | IC50 [10] [µM]
C(=C\c1nccc2c1[nH]c1ccccc12)/c1ccccc1 | 37.5 | 71.4 | 171 | > 200 | 139 | > 200 | 36.7 | 190 | 62.9 | 7.8
COc1cc(/C=C/c2nccc3c2[nH]c2ccccc23)cc(OC)c1OC | 14.4 | 23.9 | 32.2 | 66.2 | 50.5 | 24.6 | 12.8 | 34.6 | 27.8 | 5.7
O=[N+]([O-])c1ccc(/C=C/c2nccc3c4ccccc4n(CCCc4ccccc4)c23)cc1 | > 200 | > 200 | > 200 | > 200 | > 200 | > 200 | > 200 | > 200 | > 200 | > 200
COc1ccc(/C=C/c2nccc3c4ccccc4n(CCCc4ccccc4)c23)cc1 | 92.3 | > 200 | 186 | > 200 | > 200 | 58.9 | 127 | > 200 | > 200 | 123
CCCCOc1ccc2c3ccnc(/C=C/c4ccc(OC)cc4)c3n(CCCc3ccccc3)c2c1 | 89.1 | 64.3 | 92.9 | > 200 | 92.3 | 150 | 78.6 | > 200 | 54.3 | 62.9
Cc1nccc2c3ccccc3n(CCCc3ccccc3)c12 |  |  | 449 | 987 | > 1000 |  |  | 449 |  | 
COc1ccc(/C=C/c2nccc3c2[nH]c2ccccc23)cc1 | 12.9 | 42.2 | 60.5 | 167 | 142 | 29.5 | 47.1 | 118 | 21.3 | 25.6
CCCCOc1ccc2c3ccnc(/C=C/c4ccc([N+](=O)[O-])cc4)c3n(CCCc3ccccc3)c2c1 | > 200 | > 200 | > 200 | > 200 | > 200 | > 200 | > 200 | > 200 | > 200 | > 200
CCCCn1c2ccccc2c2cc[n+](Cc3ccccc3)c(/C=C/c3ccc(OC)cc3)c21 | 11.2 | 8.4 | 6.7 | 21.8 | 6.7 | 3.9 | 9.1 | 7.7 | 7.8 | 5.1
COc1ccc(/C=C/c2c3c(cc[n+]2Cc2ccccc2)c2ccccc2n3CCCc2ccccc2)cc1 | 3.2 | 0.68 | 2.1 | 0.46 | 4.5 | 0.93 | 3.9 | 2.9 | 4.3 | 4.6
CC(=O)n1c2ccccc2c2cc[n+](Cc3ccccc3)c(/C=C/c3ccc([N+](=O)[O-])cc3)c21 | 28.6 | 25.3 | 5.2 | 14.8 | 14.4 | 15.4 | 7.6 | 17.9 | 10.5 | 19.8
CCCCOc1ccc2c3cc[n+](Cc4ccccc4)c(/C=C/c4ccc([N+](=O)[O-])cc4)c3n(CCCc3ccccc3)c2c1 | 2.7 | 4.5 | 1.3 | 4.1 | 2.9 | 2.4 | 2.8 | 1.5 | 2.5 | 3.1
CCCCOc1ccc2c3cc[n+](Cc4ccccc4)c(/C=C/c4ccc(OC)cc4)c3n(CCCc3ccccc3)c2c1 | 4.6 | 7.3 | 8.9 | 7.1 | 6.8 | 2.7 | 3.4 | 1.6 | 3.2 | 8.2
CCCCn1c2ccccc2c2ccnc(/C=C/c3ccc(OC)cc3)c21 | 67.4 | 59.5 | 66 | 141 | 88.8 | 30.1 | 38.1 | 29.7 | > 200 | 25.2
CCCCn1c2ccccc2c2ccnc(C)c21 |  |  | 145 | 264 | 102 |  |  | 145 |  | 
COc1ccc(/C=C/c2c3[nH]c4ccccc4c3cc[n+]2Cc2ccccc2)cc1 | 10 | 28.2 | 9.6 | 22.9 | 32.1 | 17.9 | 10.8 | 22.5 | 9.4 | 4.9
CC(=O)n1c2ccccc2c2ccnc(/C=C/c3ccc([N+](=O)[O-])cc3)c21 | > 200 | > 200 | 197 | > 200 | > 200 | > 200 | > 200 | > 200 | > 200 | > 200
Cc1nccc2c1[nH]c1ccccc12 [HARMAN] |  |  | 115 | 215 | 186 |  |  | 151 |  | 
